Structures are written as SMILES. Converted amounts (≈) assume the structure as drawn. The source made the active and inactive calls. The calls are words filed in the database; no cut-off is given here.

This is an account of results in ChEMBL document CHEMBL4706727, “Discovery of 2,4-1H-Imidazole Carboxamides as Potent and Selective TAK1 Inhibitors” (ACS Med Chem Lett, 2021).

One series addresses TAK1/TAB1 (Homo sapiens, UniProt O43318). In words: Inhibition of recombinant human full-length His-tagged TAK1-TAB1 fusion protein (437 to 504 residues) expressed in baculovirus expression system using fluorescein-MAP2K1 as substrate preincubated for 30 mins followed by substrate addition and measured after 60 mins in presence of ATP by lanthascreen TR-FRET assay.
Series [1] in a line: Aqueous solubility of compound in pH 7.4 PBS buffer measured after 24 hrs by HPLC-UV analysis. The series is classed as physicochemical.
The nature of series [2]: Half life in human liver S9 fraction at 1 uM measured up to 60 mins in presence of NADPH by LC-MS analysis. The series is classed as ADME, subcellular.
Series [3] can be described thus: Half life in CD-1 mouse liver S9 fraction at 1 uM measured up to 60 mins in presence of NADPH by LC-MS analysis. The series is classed as ADME, subcellular.
The nature of series [4]: Half life in rat liver S9 fraction at 1 uM measured up to 60 mins in presence of NADPH by LC-MS analysis. The series is classed as ADME, subcellular.
Series [5] is described as follows: Apparent permeability across apical to basolateral side in human Caco-2 cells at 2 uM after 2 hrs by LC/MS-MS analysis. It is filed as ADME, cell-based.
The nature of series [6]: Apparent permeability across basolateral to apical side in human Caco-2 cells at 2 uM after 2 hrs by LC/MS-MS analysis. The series is classed as ADME, cell-based.
For the next series, the system named is HCT-15. In words: Cytotoxicity against TNFalpha-induced human HCT-15 cells assessed as reduction in cell viability up to 10 uM preincubated for 2 hrs followed by TNFalpha stimulation and measured after 72 hrs by celltiter-glo assay. It is filed as functional, cell-based. To be noted: dose microM <=10, time 74.0 hrs.
The target of series [7] is T1, Phosphatidylinositol 4,5-bisphosphate 3-kinase catalytic subunit delta isoform (Homo sapiens) (UniProt O00329).
T1 sequence (whole entry): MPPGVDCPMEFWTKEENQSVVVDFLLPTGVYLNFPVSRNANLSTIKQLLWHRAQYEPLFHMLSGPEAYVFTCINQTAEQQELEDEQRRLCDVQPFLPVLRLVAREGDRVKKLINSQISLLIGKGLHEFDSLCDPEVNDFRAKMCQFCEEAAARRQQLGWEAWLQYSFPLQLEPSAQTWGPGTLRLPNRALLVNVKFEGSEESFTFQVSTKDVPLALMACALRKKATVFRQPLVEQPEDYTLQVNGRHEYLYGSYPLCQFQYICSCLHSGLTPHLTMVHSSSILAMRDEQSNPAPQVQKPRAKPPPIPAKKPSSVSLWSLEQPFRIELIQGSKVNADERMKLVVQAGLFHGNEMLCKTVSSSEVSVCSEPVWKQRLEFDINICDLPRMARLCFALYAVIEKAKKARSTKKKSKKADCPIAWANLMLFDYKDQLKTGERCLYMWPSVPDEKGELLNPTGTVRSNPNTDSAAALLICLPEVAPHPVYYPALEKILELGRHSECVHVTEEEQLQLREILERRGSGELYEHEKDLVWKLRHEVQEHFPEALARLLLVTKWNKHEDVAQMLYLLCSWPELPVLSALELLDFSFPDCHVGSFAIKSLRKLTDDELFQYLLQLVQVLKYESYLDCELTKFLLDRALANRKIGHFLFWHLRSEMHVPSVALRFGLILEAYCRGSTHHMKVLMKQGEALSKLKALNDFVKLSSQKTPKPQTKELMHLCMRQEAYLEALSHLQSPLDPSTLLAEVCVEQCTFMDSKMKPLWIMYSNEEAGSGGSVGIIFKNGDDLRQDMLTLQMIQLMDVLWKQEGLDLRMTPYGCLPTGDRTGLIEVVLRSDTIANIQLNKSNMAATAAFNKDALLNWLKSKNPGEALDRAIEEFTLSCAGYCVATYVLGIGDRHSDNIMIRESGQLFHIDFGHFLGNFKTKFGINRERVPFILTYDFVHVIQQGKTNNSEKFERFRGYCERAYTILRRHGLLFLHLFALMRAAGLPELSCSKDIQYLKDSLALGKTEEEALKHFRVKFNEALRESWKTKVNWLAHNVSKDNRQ
Nature of the series: Inhibition of wild-type human partial length PIK3CD (R108 to Q1044 residues) expressed in mammalian expression system at 10 uM by Kinomescan method relative to control. Conditions: dose 1.0 µM, in the assay text read “at 1 uM” for “at 10 uM”.

Series [8] deals with Phosphatidylinositol 4-phosphate 5-kinase type-1 gamma (Homo sapiens) (UniProt O60331). In words: Inhibition wild type human partial length PIP5K1C (M1 to T668 residues) expressed in mammalian expression system at 10 uM by Kinomescan method relative to control. To be noted: dose 1.0 µM, in the assay text read “at 1 uM” for “at 10 uM”.
Chain of Phosphatidylinositol 4-phosphate 5-kinase type-1 gamma (Homo sapiens) (O60331 whole entry, the tested form may be a part): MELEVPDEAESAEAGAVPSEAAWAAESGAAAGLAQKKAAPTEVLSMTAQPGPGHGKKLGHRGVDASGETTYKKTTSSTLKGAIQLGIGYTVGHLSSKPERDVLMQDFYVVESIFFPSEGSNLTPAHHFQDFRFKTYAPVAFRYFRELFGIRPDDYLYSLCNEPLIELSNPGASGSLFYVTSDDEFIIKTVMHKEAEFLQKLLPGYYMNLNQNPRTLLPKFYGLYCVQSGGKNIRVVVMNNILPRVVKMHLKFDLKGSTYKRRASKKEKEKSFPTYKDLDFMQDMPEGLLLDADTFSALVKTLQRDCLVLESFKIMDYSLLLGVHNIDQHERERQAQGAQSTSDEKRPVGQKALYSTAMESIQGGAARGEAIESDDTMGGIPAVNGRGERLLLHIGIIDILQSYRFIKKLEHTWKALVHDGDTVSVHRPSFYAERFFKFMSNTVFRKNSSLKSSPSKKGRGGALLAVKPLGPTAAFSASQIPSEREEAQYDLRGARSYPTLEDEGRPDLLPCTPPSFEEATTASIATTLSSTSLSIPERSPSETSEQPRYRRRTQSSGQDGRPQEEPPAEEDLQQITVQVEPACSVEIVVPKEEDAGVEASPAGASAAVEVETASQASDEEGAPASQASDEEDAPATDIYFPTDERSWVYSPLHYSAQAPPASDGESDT

Chain of TAK1/TAB1 (Q15750 whole entry, the tested form may be a part): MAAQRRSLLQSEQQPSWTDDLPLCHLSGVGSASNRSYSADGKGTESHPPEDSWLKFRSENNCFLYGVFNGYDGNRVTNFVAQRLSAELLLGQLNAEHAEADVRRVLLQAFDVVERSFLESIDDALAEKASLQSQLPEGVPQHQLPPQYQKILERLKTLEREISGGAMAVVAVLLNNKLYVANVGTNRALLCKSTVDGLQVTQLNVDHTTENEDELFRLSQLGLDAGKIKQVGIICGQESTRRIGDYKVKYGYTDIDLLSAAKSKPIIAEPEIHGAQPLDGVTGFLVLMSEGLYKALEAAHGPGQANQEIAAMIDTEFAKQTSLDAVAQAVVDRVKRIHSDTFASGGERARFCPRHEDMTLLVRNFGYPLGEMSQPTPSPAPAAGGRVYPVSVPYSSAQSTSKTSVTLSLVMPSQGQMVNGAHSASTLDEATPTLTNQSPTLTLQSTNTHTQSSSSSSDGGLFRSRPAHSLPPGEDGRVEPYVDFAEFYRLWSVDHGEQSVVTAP
Chain of TAK1/TAB1 (O43318 whole entry, the tested form may be a part): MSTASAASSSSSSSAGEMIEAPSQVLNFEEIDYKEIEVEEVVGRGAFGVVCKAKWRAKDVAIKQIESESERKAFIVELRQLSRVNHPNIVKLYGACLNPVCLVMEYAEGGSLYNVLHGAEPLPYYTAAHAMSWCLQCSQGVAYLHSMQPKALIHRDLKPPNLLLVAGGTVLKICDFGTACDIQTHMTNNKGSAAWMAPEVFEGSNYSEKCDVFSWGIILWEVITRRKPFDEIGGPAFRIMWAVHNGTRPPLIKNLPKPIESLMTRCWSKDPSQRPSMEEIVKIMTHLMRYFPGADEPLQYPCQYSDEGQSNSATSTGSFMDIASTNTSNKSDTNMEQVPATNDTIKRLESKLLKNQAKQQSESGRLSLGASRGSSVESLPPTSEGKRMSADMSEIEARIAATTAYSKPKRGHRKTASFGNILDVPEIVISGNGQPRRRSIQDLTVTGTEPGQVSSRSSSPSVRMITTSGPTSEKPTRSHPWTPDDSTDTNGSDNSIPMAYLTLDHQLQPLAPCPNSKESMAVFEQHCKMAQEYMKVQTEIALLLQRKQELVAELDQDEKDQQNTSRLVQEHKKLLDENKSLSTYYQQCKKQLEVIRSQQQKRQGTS

Turning to `CNC(=O)CN(Cc1cccc2[nH]ccc12)C(=O)c1c[nH]c(C(=O)N2CCCC2)c1`, on TAK1/TAB1, the IC50 turned out to be 1800 nM.

As to `CCNC(=O)c1cc(C(=O)N(CC(=O)NC)Cc2ccccc2OC(F)F)c[nH]1`, the half-maximal inhibitory concentration (IC50) at TAK1/TAB1 was above 100000 nM. As for `CNC(=O)CN(Cc1ccccc1OC(F)F)C(=O)c1c[nH]c(C(=O)N2CCCCC2)n1`, on TAK1/TAB1, the IC50 was determined as 1200 nM. Still for that read-out and setting: the figure for `CNC(=O)CN(Cc1ccccc1OC(F)F)C(=O)c1c[nH]c(C(=O)N2CCC(NC(C)=O)C2)n1` (stereo unspecified) is above 10000 nM; for `NC(=O)CN(Cc1ccccc1OC(F)F)C(=O)c1c[nH]c(C(=O)N2CCCC2)c1` it is 900 nM; for `CNC(=O)C(C)N(Cc1ccccc1OC(F)F)C(=O)c1c[nH]c(C(=O)N2CCCC2)n1` (stereo unspecified) it is 500 nM. Consider `CNC(=O)[C@H](C)N(Cc1ccccc1OC(F)F)C(=O)c1c[nH]c(C(=O)N2CCCC2)n1`, for which, at TAK1/TAB1, the IC50 is 4500 nM. Take `CNC(=O)CN(Cc1ccccc1OC(F)F)C(=O)c1c[nH]c(C(=O)N2CCCC2C)n1` (stereo unspecified): on TAK1/TAB1, the half-maximal inhibitory concentration (IC50) worked out at 5700 nM. On the same count and under the same terms, under `CNC(=O)CN(Cc1ccccc1OC(F)F)C(=O)c1c[nH]c(C(=O)N(C)C)c1` stands 26000 nM; under `CNC(=O)CN(Cc1ccccc1OC(F)F)C(=O)c1c[nH]c(C(=O)N2CCC(c3ccccc3)C2)n1` (stereo unspecified), 2300 nM; under `CNC(=O)CN(Cc1c(Cl)cccc1OC(F)F)C(=O)c1c[nH]c(C(=O)N2CCCC2)n1`, above 10000 nM.

With `CNC(=O)CN(Cc1ccccc1OC)C(=O)c1c[nH]c(C(=O)N2CCCC2)c1`, the half-inhibitory concentration (IC50) at TAK1/TAB1 amounted to 2800 nM. The same measure, in the same setting: the figure for `CNC(=O)CN(Cc1cc(F)ccc1OC(F)F)C(=O)c1c[nH]c(C(=O)N2CCCC2)n1` is above 10000 nM; for `CNC(=O)C(C(C)C)N(Cc1ccccc1OC(F)F)C(=O)c1c[nH]c(C(=O)N2CCCC2)n1` (stereo unspecified) it is above 10000 nM; for `CNC(=O)CN(Cc1ccc(OC)cc1OC(F)F)C(=O)c1c[nH]c(C(=O)N2CCCC2)n1` it is above 10000 nM.

`CNC(=O)CN(Cc1ccccc1OC(F)F)C(=O)c1c[nH]c(C(=O)N2CCC2)n1`: the half-inhibitory concentration (IC50) at TAK1/TAB1 worked out at 2600 nM. Consider `CNC(=O)CN(Cc1ccccc1OC(F)F)C(=O)c1c[nH]c(C(=O)N2CCC(C)C2)n1` (stereo unspecified), for which the IC50 on TAK1/TAB1 turned out to be 900 nM. `CNC(=O)CN(Cc1ccccc1OC(F)F)C(=O)c1cc(C(=O)N2CCCC2)n(C)c1`: the IC50 on TAK1/TAB1 is above 100000 nM.

On to `CNC(=O)[C@@H](C)N(Cc1ccccc1OC(F)F)C(=O)c1c[nH]c(C(=O)N2CCCC2)n1`, for which the half-inhibitory concentration (IC50) at TAK1/TAB1 is 300 nM.

In the case of `CNC(=O)CN(C(=O)c1c[nH]c(C(=O)N2CCCC2)n1)C(C)c1ccccc1OC(F)F` (stereo unspecified), at TAK1/TAB1, the IC50 was above 10000 nM. In the case of `CNC(=O)CN(Cc1ccccc1OC(F)F)C(=O)c1cc(C(=O)N2CCCC2)[nH]n1`, the IC50 at TAK1/TAB1 stood at 59000 nM. Regarding `CNC(=O)CN(Cc1ccccc1)C(=O)c1c[nH]c(C(=O)N2CCCC2)n1`, on TAK1/TAB1, the IC50 is above 10000 nM. Still for that read-out and setting: under `CNC(=O)CN(Cc1ccccc1OC(F)F)C(=O)c1c[nH]c(C(=O)N2CCCCCC2)n1` stands 2900 nM; under `CNC(=O)CN(Cc1ccccc1OC(F)F)C(=O)c1c[nH]c(C(=O)N2CC3CCCCC3C2)n1` (stereo unspecified), 3400 nM; under `CNC(=O)CN(Cc1cccc(OC(F)F)c1)C(=O)c1c[nH]c(C(=O)N2CCCC2)n1`, above 10000 nM. Same read-out and setting: under `O=C(c1c[nH]c(C(=O)N2CCCC2)c1)N(Cc1ncco1)Cc1ccccc1OC(F)F` stands 3200 nM. Same read-out and setting: under `CNC(=O)CN(Cc1c(F)cccc1OC(F)F)C(=O)c1c[nH]c(C(=O)N2CCCC2)n1` stands above 10000 nM; under `CCOc1ccccc1CN(CC(=O)NC)C(=O)c1c[nH]c(C(=O)N2CCCC2)c1`, 2600 nM; under `Nc1ncc(-c2cnn([C@H]3CC[C@H](O)CC3)c2)c2c(Cl)c(-c3cccc4nnsc34)oc12`, 10 nM. Consider `CNC(=O)CN(Cc1cccc2c1OCCCO2)C(=O)c1c[nH]c(C(=O)N2CCCC2)c1`, for which the IC50 at TAK1/TAB1 came to 3400 nM. For the compound `CCC(C(=O)NC)N(Cc1ccccc1OC(F)F)C(=O)c1c[nH]c(C(=O)N2CCCC2)n1` (stereo unspecified), the IC50 on TAK1/TAB1 is 1000 nM. Same read-out and setting: under `CNC(=O)CN(Cc1ccccc1OC(F)F)C(=O)c1c[nH]c(C(=O)N2CCC(F)C2)n1` (stereo unspecified) stands 1200 nM; under `CN(Cc1ccccc1OC(F)F)C(=O)c1c[nH]c(C(=O)N2CCCC2)c1`, 3500 nM; under `CNC(=O)CN(Cc1ccccc1OC(F)F)C(=O)c1c[nH]c(C(=O)N2CCC(OC)C2)n1` (stereo unspecified), above 10000 nM.

Consider `CNC(=O)CN(Cc1cc(Cl)ccc1OC(F)F)C(=O)c1c[nH]c(C(=O)N2CCCC2)n1`, for which the IC50 on TAK1/TAB1 was above 10000 nM. Same read-out and setting: under `CC(C)NC(=O)CN(Cc1ccccc1OC(F)F)C(=O)c1c[nH]c(C(=O)N2CCCC2)c1` stands 1700 nM. The same measure, in the same setting: the figure for `CNC(=O)CN(Cc1cccc(OC)c1OC(F)F)C(=O)c1c[nH]c(C(=O)N2CCCC2)n1` is above 10000 nM. On to `CNC(=O)[C@@H](C)N(Cc1ccccc1OC(F)F)C(=O)c1c[nH]c(C(=O)N2Cc3ccc(C(N)=O)cc3C2)n1`, for which the concentration for half-maximal inhibition (IC50) at TAK1/TAB1 came to 2 nM. Moreover, the solubility at 24 h in series [1] stood at 5 µM (≈ 2.7 µg/mL). Further, the half-life at 1 µM was determined as 24 min in series [2], 29 min in series [3] and 19 min in series [4]. Also, the Papp A→B at 2 h, 2 µM in [5] was found to be 0.1 ×10⁻⁶ cm/s. Also, in series [6], the Papp B→A at 2 h, 2 µM worked out at 6 ×10⁻⁶ cm/s. The result in the series with HCT-15 was inactive. For `CNC(=O)CN(Cc1ccccc1OC(F)F)C(=O)c1c[nH]c(C(=O)N2Cc3ccc(C(N)=O)cc3C2)n1`, on TAK1/TAB1, the 50% inhibitory concentration (IC50) came out at 5 nM. Moreover, the inhibition in series [7] and in [8] was above 65% throughout. With `CNC(=O)CN(Cc1ccccc1OC(F)F)C(=O)c1c[nH]c(C(=O)N2Cc3ccccc3C2)n1`, the IC50 on TAK1/TAB1 was 300 nM. With `CNC(=O)CN(Cc1ccccc1OC(F)F)C(=O)c1c[nH]c(C(=O)N2CCCC2)c1`, the concentration for half-maximal inhibition (IC50) at TAK1/TAB1 was found to be 1300 nM. Turning to `CNC(=O)CN(Cc1ccccc1OC(F)F)C(=O)c1c[nH]c(C(=O)N2CCCCC2)c1`, the IC50 on TAK1/TAB1 worked out at 1800 nM.
